Measured values reported in patent US20240124389A1, “COMPOUND OR SALT THEREOF, LIPID PARTICLES, AND PHARMACEUTICAL COMPOSITION” (FUJIFILM Corporation, priority 2021, published 2024).

What was measured:
[1] = Particle size of EPO mRNA-encapsulating lipid particles; type: physicochemical; details: aminolipid 50 / DOPE 10 / cholesterol 38.5 / DMG-PEG2000 1.5 mol %, lipid/nucleic acid 64 wt/wt
Summary of the method: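 Lipid particles made from ethanol lipid phase (20 mmol/L total lipid, with DSPC, DOPE or DOPC, cholesterol, DMG-PEG2000) and EPO mRNA in pH 4 citrate buffer (lipid:mRNA about 16:1 to 64:1 w/w), mixed 3:1 aqueous:oil, then dialyzed against 10% sucrose. Size measured after 10-fold PBS dilution by light-scattering analyzer.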

[2] = system: human EPO; assay: Measurement of EPO enzyme activity (EPO protein in blood plasma of mice after intravenous administration of EPO mRNA lipid particles); type: in vivo; details: C57BL/6J mice, tail-vein i.v., mRNA 0.1 mg/kg, plasma 20 to 24 hours; aminolipid 50 / DOPE 10 / cholesterol 38.5 / DMG-PEG2000 1.5 mol %; lipid/nucleic acid 64 wt/wt
Summary of the method: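 C57BL/6J mice received EPO mRNA (5moU) in lipid particles (ionizable lipid, DSPC/DOPE/DOPC, cholesterol, DMG-PEG2000) by tail-vein injection at 0.1 mg/kg mRNA. Plasma taken 20–24 h later; human EPO measured by ELISA and expressed relative to a comparative formulation set as 1.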

[3] = system: PTEN mRNA; assay: PTEN mRNA knockdown in vitro (quantification of PTEN mRNA by PCR); type: cell-based, human; details: SH-SY5Y cells; PTEN ASO lipid particles of Table 3, ASO 500 nmol/L, exposure 24 hours; PTEN mRNA by ΔΔCt method
Source text: An antisense oligonucleotide nucleic acid (PTEN ASO) for a PTEN protein was purchased from Hokkaido System Science Co., Ltd. PTEN ASO is an oligonucleotide consisting of 20 bases, in which nucleotides are connected by a phosphodiester bond, and the sequence of which is described below.
In an in vitro test using SH-SY5Y cells (American Type Culture Collection), E-MEM (gibco), Ham's F12 (gibco), FBS (gibco), Penicillin-streptomycin (gibco), and NEAA (FUJIFILM Wako Pure Chemical Corporation) were mixed at a ratio of 41.5:41.5:15:1:1 and the mixture was used as a culture medium.
The measurement of PTEN protein mRNA was performed according to the protocol of TaqMan (register trademark) Fast Advanced Cells-to-CT™ Kit (Thermo Fisher Scientific). To A431 cells or SH-SY5Y cells, a dispersion liquid of nucleic acid lipid particles prepared to have a final concentration of 500 nmol/L as an ASO concentration, Naked ASO or PBS was added. After exposure for 24 hours under the control of 37° C. and 5% CO2, the culture supernatant was removed, and the mixture was washed once with PBS at 4° C. After removing the PBS, a lysis solution was added at 50 μL/well, and the mixture was stood still for 5 minutes at room temperature to obtain a cell lysate. For the cell lysate, TaqMan (register trademark) Fast Advanced Cells-to-CT™ Kit (Thermo Fisher scientific), and Hs02621230_s1, FAM/MGB (Thermo Fisher Scientific) and Human GAPDH Endogenous Control (VIC (register trademark)/MGB, Thermo Fisher Scientific) as a PCR reaction reagent were used to perform reverse transcription and PCR reaction.
The PTEN mRNA level of each sample was calculated by the ΔΔCt method. Specifically, the Ct value of GAPDH is subtracted from the Ct value of PTEN to calculate the ΔCt value of each sample. The average value of the ΔCt values of the PBS treatment group was subtracted from the calculated ΔCt value to calculate the ΔΔCt value. For each ΔΔCt value, a relative value with respect to the Naked ASO to be compared was taken as a PTEN mRNA relative value.

[4] = Particle size of FLuc mRNA-encapsulating lipid particles; type: physicochemical
Procedure: The compounds described in Table 2, the neutral lipid, cholesterol (product name: Cholesterol HP; NTPPON FINE CHEMICAL CO., LTD.), and 1,2-dimyristoyl-rac-glycero-3-(methylpolyoxyethylene 2000) (hereinafter, called DMG-PEG2000) were dissolved in ethanol at a molar ratio in Table 2 such that the total lipid concentration became 20 mmol/L, thereby obtaining an oil phase.
As the neutral lipid, 1,2-distearoyl-sn-glycero-3-phosphocholine (product name: COATSOME® MC-8080; NOF corporation) was used in a case of Comparative Example 1, and L-α-dioleoylphosphatidylethanolamine (product name: COATSOME® MC-8181; NOF corporation) was used in a case other than Comparative Example 1.
FLuc mRNA (product name: CleanCap FLuc mRNA (5 moU); TriLink) was diluted with 50 mmol/L citrate buffer having a pH 4 such that the weight ratio of total lipid concentration to mRNA concentration is about 19:1 to 64:1, obtaining a water phase. Then, the water phase and the oil phase were mixed together using NanoAssemblr (Precision NanoSystems) such that the volume ratio of water phase:oil phase was 3:1, and the mixed solution was 1.5-fold diluted with phosphate buffered saline (PBS), thereby obtaining a dispersion liquid of mRNA lipid particles. The dispersion liquid was dialyzed with a 10% aqueous sucrose solution using a dialysis cassette (Slide-A-Lyzer G2, MWCO: 10 kD, Thermo Fisher Scientific) to remove ethanol, thereby obtaining FLuc mRNA-encapsulating lipid particles.
The particle size of the mRNA-encapsulating lipid particles was measured by 10-fold diluting the dispersion liquid of lipid particle with phosphate buffered saline (PBS) using Zeta-potential & Particle size Analyzer ELS-Z2 (Otsuka Electronics Co., Ltd.).

[5] = aminolipid 45 / DOPE 10 / cholesterol 43.5 / DMG-PEG2000 1.5 mol %, lipid/nucleic acid 32 wt/wt

| Structure (SMILES) | Particle size [1] [nm] | Relative amount of EPO protein (with respect to Comparative Example 1) [2] | PTEN knockdown relative value with respect to Naked ASO [3] | Particle size [4, 5] [nm] | Particle size ([4]; aminolipid 40 / DOPE 10 / cholesterol 48.5 / DMG-PEG2000 1.5 mol %, lipid/nucleic acid 64 wt/wt) [nm] | Particle size ([4]; aminolipid 50 / DOPE 10 / cholesterol 38.5 / DMG-PEG2000 1.5 mol %, lipid/nucleic acid 64 wt/wt) [nm] |
| --- | --- | --- | --- | --- | --- | --- |
| CCCCCCC(CCCC)COC(=O)CCCC(CCCCCC)OC(=O)OCCN(CCOC(=O)OC(CCCCCC)CCCC(=O)OCC(CCCC)CCCCCC)CCN(CC)CC (centres unmarked) [Example 8, Bis(2-butyloctyl) 11-(2-(diethylamino)ethyl)-5,17-dihexyl-7,15-dioxo-6,8,14,16-tetraoxa-11-azahenicosanedioate] | 81.3 | 2.27 | 0.65 |  |  |  |
| CCCCCCC(CCCC(=O)OCC(CCCCC)CCCCC)OC(=O)OCCN(CCCN(CC)CC)CCOC(=O)OC(CCCCCC)CCCC(=O)OCC(CCCCC)CCCCC (centres unmarked) [Example 13, Bis(2-pentylheptyl) 11-(3-(diethylamino)propyl)-5,17-dihexyl-7,15-dioxo-6,8,14,16-tetraoxa-11-azahenicosanedio ate] | 79.5 | 5.09 | 0.34 | 83.4 |  |  |
| CCCCCC(CCCCC)COC(=O)CCCC(CCC)OC(=O)OCCN(CCOC(=O)OC(CCC)CCCC(=O)OCC(CCCCC)CCCCC)CCN(CC)CC (centres unmarked) [Example 21, Bis(2-pentylheptyl) 11-(2-(diethylamino)ethyl)-7,15-dioxo-5,17-dipropyl-6,8,14,16-tetraoxa-11-azahenicosanedioate] | 109.4 | 4.66 | 0.33 | 100.9 |  |  |
| CCCCCCCOC(=O)CCCC(CCCC(=O)OCCCCCCC)OC(=O)OCCN(CCOC(=O)OC(CCCC(=O)OCCCCCCC)CCCC(=O)OCCCCCCC)CCN(CC)CC [Example 29, diheptyl 11-(2-(diethylamino)ethyl)-5,17-bis(4-(heptyloxy)-4-oxobutyl)-7,15-dioxo-6,8,14,16-tetraoxa-11-azahenicosanedioate] | 108.7 | 9.90 | 0.80 | 129 | 104.8 | 95.1 |
| CCCCCCCOC(=O)CCCC(CCCC(=O)OCCCCCCC)OC(=O)OCCN(CCOC(=O)OC(CCCC(=O)OCCCCCC)CCCC(=O)OCCCCCC)CCN(CC)CC [Example 37, 1-Heptyl 21-hexyl 11-(2-(diethylamino)ethyl)-5-(4-(heptyloxy)-4-oxobutyl)-17-(4-(hexyloxy)-4-oxobutyl)-7,15-d ioxo-6,8,14,16-tetraoxa-11-azahenicosanedioate] | 136.1 | 5.18 | 0.83 |  |  |  |
